Measured values taken from ChEMBL document CHEMBL3045994, “Design, synthesis, and anticonvulsant evaluation of some novel 1, 3 benzothiazol-2-yl hydrazones/acetohydrazones” (Med Chem Res, 2012).

Legend:
[1] = system: Mus musculus; test: Anticonvulsant activity in Mus musculus albino CF1 (mouse) assessed as protection against 6 Hz psychomotor seizure at 100 mg/kg, ip after 2 hr; assay type: functional; details: route intraperitoneal
[2] = system: Mus musculus; test: Anticonvulsant activity in Mus musculus albino CF1 (mouse) assessed as protection against 6 Hz psychomotor seizure at 100 mg/kg, ip after 0.5 hr; assay type: functional; details: route intraperitoneal
[3] = system: Mus musculus; test: Anticonvulsant activity in Mus musculus albino CF1 (mouse) assessed as protection against 6 Hz psychomotor seizure at 100 mg/kg, ip after 1 hr; assay type: functional; details: route intraperitoneal
[4] = system: Mus musculus; test: Anticonvulsant activity in Mus musculus albino CF1 (mouse) assessed as protection against 6 Hz psychomotor seizure at 100 mg/kg, ip after 4 hr; assay type: functional; details: route intraperitoneal
[5] = system: Mus musculus; test: Neurotoxicity in Mus musculus albino CF1 (mouse) assessed as motor impairment at 100 mg/kg, ip after 0.25 hr; assay type: toxicity, organism-based; set-up: dose 100 mg/kg, route intraperitoneal; details: in vivo
[6] = system: Mus musculus; test: Neurotoxicity in Mus musculus albino CF1 (mouse) assessed as motor impairment at 100 mg/kg, ip after 1 hr; assay type: toxicity, organism-based; set-up: dose 100 mg/kg, route intraperitoneal; details: in vivo
[7] = system: Mus musculus; test: Anticonvulsant activity in Mus musculus albino CF1 (mouse) assessed as protection against 6 Hz psychomotor seizure at 100 mg/kg, ip after 0.25 hr; assay type: functional; details: route intraperitoneal
[8] = Octanol-phosphate buffer partition coefficient, log P of the compound after 24 hr; assay type: physicochemical
[9] = system: Mus musculus; test: Neurotoxicity in Mus musculus albino CF1 (mouse) assessed as motor impairment at 100 mg/kg, ip after 2 hr; assay type: toxicity, organism-based; set-up: dose 100 mg/kg, route intraperitoneal; details: in vivo
[10] = system: Mus musculus; test: Neurotoxicity in Mus musculus albino CF1 (mouse) assessed as motor impairment at 100 mg/kg, ip after 4 hr; assay type: toxicity, organism-based; set-up: dose 100 mg/kg, route intraperitoneal; details: in vivo
[11] = system: Mus musculus; test: Neurotoxicity in Mus musculus albino CF1 (mouse) assessed as motor impairment at 100 mg/kg, ip after 0.5 hr; assay type: toxicity, organism-based; set-up: dose 100 mg/kg, route intraperitoneal; details: in vivo
[12] = system: Mus musculus; test: Neurotoxicity in Mus musculus albino CF1 (mouse) assessed as motor impairment at 300 mg/kg, ip up to 4 hr; assay type: toxicity, organism-based; set-up: dose 300 mg/kg, route intraperitoneal; details: in vivo

Work on `Cc1cc(Oc2ccc(/C=N/NC(=O)CSc3nc4ccccc4s3)cc2)ccc1Cl` yielded an Activity [1] of 0%, an Activity [2] of 25% and an Activity [3] of 25%. For the same compound, the Activity [4] was 0%, the Activity [5] was “Non-toxic” and the Activity [6] was “Non-toxic”. For the same compound, the Activity [7] was 0%, the logP at 24 h [8] was 5.7 and the Activity [9] was “Non-toxic”. The Activity [10] was “Non-toxic”, the Activity [11] was “Non-toxic” and the Activity [12] was “Non-toxic”.

With `Cc1cc(Oc2ccc(/C=N/Nc3nc4ccccc4s3)cc2)ccc1Cl` the Activity [1] was 0%, the Activity [2] was 0% and the Activity [3] was 0%. For the same compound, the Activity [4] was 0%, the Activity [5] was “Non-toxic” and the Activity [6] was “Non-toxic”. The Activity [7] was 25%, the logP at 24 h [8] was 5.5 and the Activity [9] was “Non-toxic”. The Activity [10] was “Non-toxic”, the Activity [11] was “Non-toxic” and the Activity [12] was “Non-toxic”.

For `O=C1Nc2ccccc2/C1=N/Nc1nc2ccccc2s1`, the Activity [1] was 25%, the Activity [2] was 0% and the Activity [3] was 25%. The Activity [4] was 0%, the Activity [5] was “Non-toxic” and the Activity [6] was “Non-toxic”. For the same compound, the Activity [7] was 0%, the logP at 24 h [8] was 3.2 and the Activity [9] was “Non-toxic”. For the same compound, the Activity [10] was “Non-toxic”, the Activity [11] was “Non-toxic” and the Activity [12] was “Non-toxic”.

For `O=C(CSc1nc2ccccc2s1)N/N=C/c1ccc(Oc2ccc3ccccc3c2)cc1`, the Activity [1] was 0%, the Activity [2] was 25% and the Activity [3] was 0%. For the same compound, the Activity [4] was 0%, the Activity [5] was “Non-toxic” and the Activity [6] was “Non-toxic”. For the same compound, the Activity [7] was 0%, the logP at 24 h [8] was 5.9 and the Activity [9] was “Non-toxic”. The Activity [10] was “Non-toxic”, the Activity [11] was “Non-toxic” and the Activity [12] was “Non-toxic”.

`O=C(CSc1nc2ccccc2s1)N/N=C1\C(=O)Nc2ccccc21` showed an Activity [1] of 0%, an Activity [2] of 75% and an Activity [3] of 0%. The Activity [4] was 0%, the Activity [5] was “Non-toxic” and the Activity [6] was “Non-toxic”. The Activity [7] was 0%, the logP at 24 h [8] was 3.2 and the Activity [9] was “Non-toxic”. The Activity [10] was “Non-toxic”, the Activity [11] was “Non-toxic” and the Activity [12] was “Non-toxic”.

Compound `O=C(CSc1nc2ccccc2s1)N/N=C/c1ccc(Oc2ccc([N+](=O)[O-])cc2)cc1` has an Activity [1] of 0%, an Activity [2] of 0% and an Activity [3] of 25%. The Activity [4] was 0%, the Activity [5] was “Non-toxic” and the Activity [6] was “Non-toxic”. For the same compound, the Activity [7] was 0%, the logP at 24 h [8] was 5.3 and the Activity [9] was “Non-toxic”. The Activity [10] was “Non-toxic”, the Activity [11] was “Non-toxic” and the Activity [12] was “Non-toxic”.

`O=C(CSc1nc2ccccc2s1)N/N=C/c1ccc(Oc2ccccc2)cc1` showed an Activity [1] of 0%, an Activity [2] of 25% and an Activity [3] of 50%. The Activity [4] was 0%, the Activity [5] was “Non-toxic” and the Activity [6] was “Non-toxic”. The Activity [7] was 50%, the logP at 24 h [8] was 5.6 and the Activity [9] was “Non-toxic”. For the same compound, the Activity [10] was “Non-toxic”, the Activity [11] was “Non-toxic” and the Activity [12] was “Non-toxic”.

Compound `O=C(CSc1nc2ccccc2s1)N/N=C/c1ccc(Oc2ccc(Br)cc2)cc1` has an Activity [1] of 0%, an Activity [2] of 50% and an Activity [3] of 75%. The Activity [4] was 0%, the Activity [5] was “Non-toxic” and the Activity [6] was “Non-toxic”. The Activity [7] was 0%, the logP at 24 h [8] was 5.7 and the Activity [9] was “Non-toxic”. The Activity [10] was “Non-toxic”, the Activity [11] was “Non-toxic” and the Activity [12] was “Non-toxic”.

For `O=C(CSc1nc2ccccc2s1)N/N=C/c1ccc(Oc2ccc3c(c2)OCO3)cc1`, the logP at 24 h [8] was 5.5 and the Activity [12] was “Non-toxic”.

Compound `O=[N+]([O-])c1ccc(Oc2ccc(/C=N/Nc3nc4ccccc4s3)cc2)cc1` has an Activity [1] of 0%, an Activity [2] of 25% and an Activity [3] of 50%. The Activity [4] was 0%, the Activity [5] was “Non-toxic” and the Activity [6] was “Non-toxic”. For the same compound, the Activity [7] was 50%, the logP at 24 h [8] was 5.1 and the Activity [9] was “Non-toxic”. The Activity [10] was “Non-toxic”, the Activity [11] was “Non-toxic” and the Activity [12] was “Non-toxic”.

Compound `Cc1ccc(Oc2ccc(/C=N/Nc3nc4ccccc4s3)cc2)cc1` has an Activity [1] of 0%, an Activity [2] of 25% and an Activity [3] of 0%. For the same compound, the Activity [4] was 0%, the Activity [5] was “Non-toxic” and the Activity [6] was “Non-toxic”. For the same compound, the Activity [7] was 25%, the logP at 24 h [8] was 5.4 and the Activity [9] was “Non-toxic”. The Activity [10] was “Non-toxic”, the Activity [11] was “Non-toxic” and the Activity [12] was “Non-toxic”.

Work on `C(=N\Nc1nc2ccccc2s1)/c1ccc(Oc2ccc3c(c2)OCO3)cc1` yielded an Activity [1] of 0%, an Activity [2] of 25% and an Activity [3] of 0%. The Activity [4] was 0%, the Activity [5] was “Non-toxic” and the Activity [6] was “Non-toxic”. The Activity [7] was 0%, the logP at 24 h [8] was 5 and the Activity [9] was “Non-toxic”. The Activity [10] was “Non-toxic”, the Activity [11] was “Non-toxic” and the Activity [12] was “Non-toxic”.

With `Clc1ccc(Oc2ccc(/C=N/Nc3nc4ccccc4s3)cc2)cc1` the Activity [1] was 25%, the Activity [2] was 50% and the Activity [3] was 0%. For the same compound, the Activity [4] was 0%, the Activity [5] was “Non-toxic” and the Activity [6] was “Non-toxic”. The Activity [7] was 0%, the logP at 24 h [8] was 5.6 and the Activity [9] was “Non-toxic”. The Activity [10] was “Non-toxic”, the Activity [11] was “Non-toxic” and the Activity [12] was “Non-toxic”.

For `C(=N\Nc1nc2ccccc2s1)/c1ccc(Oc2ccc3ccccc3c2)cc1`, the Activity [1] was 50%, the Activity [2] was 0% and the Activity [3] was 25%. The Activity [4] was 0%, the Activity [5] was “Non-toxic” and the Activity [6] was “Non-toxic”. For the same compound, the Activity [7] was 25%, the logP at 24 h [8] was 5.6 and the Activity [9] was “Non-toxic”. The Activity [10] was “Non-toxic”, the Activity [11] was “Non-toxic” and the Activity [12] was “Non-toxic”.

For `Fc1ccc(Oc2ccc(/C=N/Nc3nc4ccccc4s3)cc2)cc1`, the logP at 24 h [8] was 5 and the Activity [12] was “Non-toxic”.

With `C(=N\Nc1nc2ccccc2s1)/c1ccc(Oc2ccccc2)cc1` the Activity [1] was 50%, the Activity [2] was 25% and the Activity [3] was 0%. For the same compound, the Activity [4] was 0%, the Activity [5] was “Non-toxic” and the Activity [6] was “Non-toxic”. The Activity [7] was 0%, the logP at 24 h [8] was 5.2 and the Activity [9] was “Non-toxic”. The Activity [10] was “Non-toxic”, the Activity [11] was “Non-toxic” and the Activity [12] was “Non-toxic”.

Compound `Brc1ccc(Oc2ccc(/C=N/Nc3nc4ccccc4s3)cc2)cc1` has an Activity [1] of 50%, an Activity [2] of 50% and an Activity [3] of 25%. For the same compound, the Activity [4] was 0%, the Activity [5] was “Non-toxic” and the Activity [6] was “Non-toxic”. The Activity [7] was 0%, the logP at 24 h [8] was 5.5 and the Activity [9] was “Non-toxic”. The Activity [10] was “Non-toxic”, the Activity [11] was “Non-toxic” and the Activity [12] was “Non-toxic”.

In the case of `Cc1ccc(Oc2ccc(/C=N/NC(=O)CSc3nc4ccccc4s3)cc2)cc1`, the logP at 24 h [8] is reported as 5.7 and the Activity [12] is reported as “Non-toxic”.

Compound `O=C(CSc1nc2ccccc2s1)N/N=C/c1ccc(Oc2ccc(F)cc2)cc1` has an Activity [1] of 0%, an Activity [2] of 25% and an Activity [3] of 0%. For the same compound, the Activity [4] was 0%, the Activity [5] was “Non-toxic” and the Activity [6] was “Non-toxic”. The Activity [7] was 50%, the logP at 24 h [8] was 5.5 and the Activity [9] was “Non-toxic”. For the same compound, the Activity [10] was “Non-toxic”, the Activity [11] was “Non-toxic” and the Activity [12] was “Non-toxic”.

For `O=C(CSc1nc2ccccc2s1)N/N=C/c1ccc(Oc2ccc(Cl)cc2)cc1`, the Activity [1] was 25%, the Activity [2] was 0% and the Activity [3] was 75%. The Activity [4] was 0%, the Activity [5] was “Non-toxic” and the Activity [6] was “Non-toxic”. For the same compound, the Activity [7] was 0%, the logP at 24 h [8] was 5.6 and the Activity [9] was “Non-toxic”. For the same compound, the Activity [10] was “Non-toxic”, the Activity [11] was “Non-toxic” and the Activity [12] was “Non-toxic”.
